# US20200347148A1, “METHODS FOR ENHANCING AND MAINTAINING CAR-T CELL EFFICACY” (Bellicum Pharmaceuticals, Inc., priority 2017, published 2020)
# Entries after “also recorded” stand apart in the source; their conditions may differ.
# Assays:
# [1] = test system: iC9 (inducible caspase-9) safety switch; experiment: Rimiducid activation of the iC9 safety switch in CAR-T-treated tumor-bearing NSG mice; format: in vivo
# Protocol: Animal Models. To evaluate anti-tumor activity of CD19-targeted CAR-T cells, NSG mice were engrafted with 5×10^5 CD19^+ Raji or Raji-EGFPluc tumor cells by intravenous (i.v.) tail vein injection. After 4 days, variable doses of non-transduced and gene-modified T cells were administered by i.v. (tail) injection. In some experiments, mice were rechallenged with Raji-EGFPluc […] as above. To test CD123-specific CAR-T activity, 1×10^6 CD123^+ THP-1-EGFPluc were engrafted by i.v. injection, followed by infusion of 2.5×10^6 unmodified or CAR-T cells 7 days post-tumor engraftment. iC9 titration experiments were performed by treating Raji tumor-bearing mice with 5×10^6 iC9-CD19.ζ-MC-modified T cells followed by injection of rimiducid 7 days after T cell injection at 0.00005, 0.0005, 0.005, 0.05, 0.5 and 5 mg/kg. To evaluate cytokine-related toxicities, neutralizing antibodies against hIL-6, hIFN-γ and TNF-α or an isotype control antibody (Bio X Cell, West Lebanon, N.H.) were administered by i.p. injection with 100 ug twice weekly. Additional experiments were performed using positively selected CD4^+ and CD8+ iC9-CD19.ζ-MC-modified T cells using CD4 or CD8 microbeads and MACS columns (Miltenyi Biotec). In vivo tumor growth and T cell proliferation was measured by bioluminescence imaging (BLI) by i.p. injection of 150 mg/kg D-luciferin (Perkin Elmer, Waltham, Mass.) and imaged using the IVIS imaging system (Perkin Elmer). Photon emission was analyzed by whole body region-of-interest (ROI) and signal measured as average radiance (photons/second/cm2/steradian).
# While administration of high dose rimiducid (5 mg/kg) allowed the persistence of low level CAR-T cells, titration of rimiducid may permit the retention of more gene-modified T cells while mitigating cytokine-related toxicities. T cells were co-transduced with iC9-CD19.ζ-MC and EGFPluc and administered into Raji-bearing mice. Following the onset of cachexia (>10% body weight loss), a log-titration of rimiducid (5-5×10^−5 mg/kg) was administered as a single i.p. injection (FIG. 6A).
# To further study cachexia associated with administration of iC9-CAR.-MC-modified T cells, the CD19-redirected construct was assayed against CD19^+ Daudi tumors in vivo, and neutralizing antibodies targeting human IL-6, IFN-γ and TNF-α, all of which are cross-reactive with murine cytokine receptors, were administered, and followed by monitoring of mouse weight loss. Here, tumor-bearing mice were treated with 5×10^6 iC9-CD19.ζ-MC transduced T cells and following >10% weight loss, intervention with either a single i.p. dose of rimiducid (0.5 mg/kg) or vehicle, or twice weekly injections of 100 ug per mouse anti-hIFN-γ, hIL-6 or hTNF-α was initiated (FIG. 9A). […] 5×10^6 iC9-CD19.ζ-MC-modified T cells were injected in to Daudi-bearing NSG mice and then treated with 0.5 mg/kg rimiducid after >10% weight loss or with i.p. injections with […] twice per week with an isotype antibody (control) or with neutralizing antibodies against human TNF-α, IL-6 and IFN-γ. Weight recovery was monitored until day 28. […] Thus, cytokine blockade provides a second effective mechanism to resolve the toxicity of this potent approach.
# [2] = Iuliucci J D, et al., J Clin Pharmacol. 2001; cited from earlier work
# [3] = Raji model, 24 hours post-rimiducid
structure (smiles),measurement,setting,value
"CC[C@H](C(=O)N1CCCC[C@H]1C(=O)O[C@H](CCc1ccc(OC)c(OC)c1)c1cccc(OCC(=O)NCCNC(=O)COc2cccc([C@@H](CCc3ccc(OC)c(OC)c3)OC(=O)[C@@H]3CCCCN3C(=O)[C@@H](CC)c3cc(OC)c(OC)c(OC)c3)c2)c1)c1cc(OC)c(OC)c(OC)c1 (relative stereo) [rimiducid, 2-Piperidinecarboxylic acid, 1-[(2S)-1-oxo-2-(3,4,5-trimethoxyphenyl)butyl]-, 1,2-ethanediylbis[imino(2-oxo-2,1-ethanediyl)oxy-3,1-phenylene[(1R)-3-(3,4-dimethoxyphenyl)propylidene]] ester, [2S-[1(R*),2R*[S*[S*[1(R*),2R*]]]]]-(9CI)]",serum concentrations of hTNF-α,"[1]; Daudi model, 0.5 mg/kg single i.p.",significantly reduced
same,CAR-T BLI after rimiducid titration,"[1]; Raji model, 5-5×10^−5 mg/kg single i.p.",reduced in a rimiducid dose-dependent manner
same,"serum cytokine levels (IL-6, IFN-γ, TNF-α) after rimiducid titration",[1]; [3],decreased serum cytokine levels
same,"serum levels of human cytokines (IFN-γ, IL-6) after rimiducid",[1]; [3],reverted to baseline levels
same,resolution of CAR-related toxicity (weight loss),"[1]; Raji model, iC9-CD19.ζ-MC T cells, single 5 mg/kg i.p., 5 mg/kg",promptly resolved toxicity; also recorded: successfully resolved
same,resolution of cachexia,"[1]; THP-1 model, iC9-CD123.ζ-MC T cells, without affecting tumor control",could be resolved
same,safety in healthy volunteers,[2],proven safe
